Assay [1] deals with pancreatic cancer cell. Description: in vivo tumor growth, antagonists of Table 2. The arrangement: species or system mouse; key: ✓✓✓✓: dose response observed; growth suppressed by 8-fold or more relative to control; ✓✓✓: dose response observed; growth suppressed between 4-fold and 8-fold relative to control; ✓✓: dose response observed; growth suppressed by less than 4-fold relative to control; ✓: response observed only at highest drug dose tested; —: no detectable response. The conditions noted are these: extent of growth suppression relative to control.

Assay [2] deals with pancreatic cancer cell. In words: in vitro sphere formation, antagonists of Table 2. In kind it is cell-based, mouse. The arrangement: key: ✓✓✓✓: dose response observed; growth suppressed by 8-fold or more relative to control; ✓✓✓: dose response observed; growth suppressed between 4-fold and 8-fold relative to control; ✓✓: dose response observed; growth suppressed by less than 4-fold relative to control; ✓: response observed only at highest drug dose tested; —: no detectable response. The following applies: extent of growth suppression relative to control. How it is done: Pancreatic tumorsphere formation assays were performed and modified from (Rovira et al., 2010). Briefly, low-passage (<6 passages) WT or REM2-KP^f/fC cell lines were infected with lentiviral particles containing shRNAs; positively infected (red) cells were sorted 72 hours after transduction. 100-300 infected cells were suspended in tumorsphere media: 100 μl DMEM F-12 (Gibco, Life Technologies) containing 1× B-27 supplement (Gibco, Life Technologies), 3% FBS, 100 μM B-mercaptoethanol (Gibco, Life Technologies), 1× non-essential amino acids (Gibco, Life Technologies), 1× N2 supplement (Gibco, Life Technologies), 20 ng/ml EGF (Gibco, Life Technologies), 20 ng/ml bFGF2 (Gibco, Life Technologies), and 10 ng/ml ESGRO mLIF (Thermo Fisher). Cells in media were plated in 96-well ultra-low adhesion culture plates (Costar) and incubated at 37° C. for 7 days. KP^f/fC in vitro tumorsphere formation studies were conducted at a minimum of n=3 independent wells per cell line across two independent shRNA of n=3 wells; however, the majority of these experiments were additionally completed in >1 independently-derived cell lines n=3, at n=3 wells per shRNA.

Assay [3] deals with primary patient-derived PDX1356 organoids. Description: PDX1356 organoid assay. The following applies: 0.05 nM gemcitabine alone. In kind it is cell-based, human. The protocol: (§1) PDX1535 organoids were derived from a patient of pancreatic cancer. Primary patient organoids were established by digesting patient-derived xenografts for 1 hour at 37° C. in RPMI containing 2.5% FBS, 5 mg/ml Collagenase II, and 1.25 mg/ml Dispase II, followed by passage through a […] mesh filter. Cells were plated at a density of 1.5×10^5 cells per 50 μl Matrigel. After domes were solidified, growth medium was added as follows: RPMI containing 50% Wnt3a conditioned media, 10% RSpondin1-conditioned media, 2.5% FBS, 50 ng/ml EGF, 5 mg/ml Insulin, 12.5 ng/ml hydrocortisone, and 14 μM Rho Kinase Inhibitor. After establishment, organoids were passaged and maintained. Briefly, organoids were isolated using Cell Recovery Solution (Corning 354253), then dissociated into single cell suspension with TrypLE Express (ThermoFisher 12604) supplemented with 25 μg/ml DNase I (Roche) and 14 μM Rho Kinase Inhibitor (Y-27632, Sigma). Cells were split 1:2 into 20 μl domes plated on pre-warmed 48-well plates. Domes were incubated at 37° C. for 5 min, then covered with human complete organoid feeding media without Wnt3a-conditioned media.
As shown in FIGS. 65-66, the anti-cancer effect of JTE-151 was also tested using the organoid assay on primary patient-derived PDX1356 pancreatic cancer cells. […] The volume of organoids was expressed as relative to control.

Assay [4] concerns KP^f/fC derived flank tumors. Description: KP^f/fC flank tumors in immunocompetent mice. The following applies: gemcitabine alone. In kind it is in vivo, mouse.
For assay [5], the system named is primary patient-derived PDX1535 organoids. Description: PDX1535 organoid assay. In kind it is cell-based, human. The protocol: as §1, with “media. […] The organoids were imaged and measured at the end of treatment. […] Moreover, the anti-cancer effect of JTE-151 was determined in an organoid assay using pancreatic cancer cells derived from mice bearing primary patient-derived xenografts.” for “media.”

“Also recorded” adds a separate entry of the source.

The results in this text go back to patent US20220202811A1, “TREATMENT FOR RETINOIC ACID RECEPTOR-RELATED ORPHAN RECEPTOR Ɣ (RORƔ)-DEPENDENT CANCERS” (The Regents of the University of California, priority 2019, published 2022).

`Cl[TeH]1(Cl)(Cl)OCCO1` [AS101]: the “in vivo tumor growth” value in assay [1] was “—”. Further, in assay [2], the “in vitro sphere formation” value was “✓✓✓ (dose response observed; growth suppressed between 4-fold and 8-fold relative to control)”.
In the case of `O=C1/C(=C/c2ccccc2)C(NC2CCCCC2)c2ccccc21` (centres unmarked) [BCl], the “in vivo tumor growth” value in assay [1] is recorded as “—”. For the same compound, the “in vitro sphere formation” value in assay [2] is “✓✓ (dose response observed; growth suppressed by less than 4-fold relative to control)”.
Turning to `CCc1cc(Cl)c(OC)c(C(=O)NC[C@@H]2CCCN2CC)c1O` [Eticlopride], in assay [1], the “in vivo tumor growth” value is “—”. For the same compound, the “in vitro sphere formation” value in assay [2] is reported as “—”.
With `Cc1c(F)cccc1NC(=O)Nc1ccc(Cl)c(S(=O)(=O)[C@H]2CCCNC2)c1O` [Danirixin], the “in vitro sphere formation” value in assay [2] is “—”.
As to `Oc1c(Br)cc(Br)cc1-c1[nH]c(Br)c(Br)c1Br` [Pentabromopseudilin], the “in vitro sphere formation” value in assay [2] is given as “✓✓ (dose response observed; growth suppressed by less than 4-fold relative to control)”.
As for `Nc1ccn([C@@H]2O[C@H](CO)[C@@H](O)C2(F)F)c(=O)n1` [gemcitabine], the organoid volume entry in assay [3] is reported as “significant reduction; also recorded: visibly decreased; also recorded: visibly reduced”. Besides, the “cancer stem cell burden” value in assay [4] is given as “no impact”. For the same compound, the organoid growth result in assay [5] (0.025 nM gemcitabine alone) is listed as “decreased PDZ1535 organoid growth, although not statistically significant”. Besides, the “organoid volume / growth” value in assay [5] (0.05 nM gemcitabine alone) was “visibly reduced; also recorded: significant inhibition”.
With `CC(C)(C)NC(=O)c1cncn1C1CCN(c2ccc(-c3nnc(C(F)(F)F)o3)cn2)CC1` [Wnk463], the “in vitro sphere formation” value in assay [2] is reported as “✓✓ (dose response observed; growth suppressed by less than 4-fold relative to control)”.
For `NCCCCCCCN=C(N)N` [GC7], the “in vitro sphere formation” value in assay [2] is “✓”.
